Earlier results in patent publication EP0349956A1, “Azacyclic compounds and their preparation und use” (NOVO NORDISK A/S, priority 1988, dated 1990).
pKd: −log10 of the molar value. Like-named read-outs stand apart in the source and are kept apart here.

Molecular target: muscarinic receptor in the CNS

## ³H-Oxotremorine-M
First of three different sites labelled by ³H-Oxo (high affinity)
  pKd: 8.74
Second of three different sites labelled by ³H-Oxo (medium affinity)
  pKd: 7.70
Third of three different sites labelled by ³H-Oxo (not determined under the present conditions), read-out: affinity
  pKd: 5.52
